Laboratory results taken from patent publication US20120190701A1, “RENIN INHIBITORS” (Merck Sharp & Dohme Corp., priority 2009, published 2012).

What was measured:
[1] = target: T1, Human recombinant renin (Homo sapiens, UniProt P00797); experiment: Inhibition of human recombinant renin (buffer assay, quenched fluorescent peptide); format: biochemical; conditions: buffer: 50 mM MOPS pH 7.4, 100 mM NaCl, 0.002% Tween 20; 37° C., 3 hours
T1 construct: purchased Proteos
T1 sequence (P00797 67-406): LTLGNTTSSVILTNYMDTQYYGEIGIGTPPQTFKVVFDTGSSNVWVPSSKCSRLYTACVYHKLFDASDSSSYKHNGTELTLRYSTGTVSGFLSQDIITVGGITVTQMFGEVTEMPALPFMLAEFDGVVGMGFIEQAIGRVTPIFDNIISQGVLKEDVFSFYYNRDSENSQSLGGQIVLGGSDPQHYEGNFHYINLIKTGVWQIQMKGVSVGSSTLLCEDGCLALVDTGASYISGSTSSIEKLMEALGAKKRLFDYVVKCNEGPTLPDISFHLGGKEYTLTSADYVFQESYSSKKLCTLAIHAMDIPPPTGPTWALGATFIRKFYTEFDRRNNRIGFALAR
Protocol: Background fluorescence at t=0 is subtracted from the measurement at t=3 hours. Inhibitory activity of the compounds is expressed as IC50.

[2] = target: T2, recombinant renin in human plasma (Homo sapiens, UniProt P00797); experiment: Inhibition of renin in human plasma (quenched fluorescent peptide); format: biochemical; conditions: human EDTA plasma with 1 nM recombinant renin added; 37° C., 1 hour
T2 construct: purchased Proteos
T2 sequence (P00797 67-406): T1 sequence (P00797 67-406)
Protocol: Human EDTA-collected plasma is rapidly thawed in warm water and centrifuged at 2900 g for 15 minutes at 4° C. The supernatant is collected and recombinant renin (Proteos) is added at a final concentration of 1 nM. […] The plate is incubated at 37° C. for 1 hour. […] Background fluorescence at t=0 is subtracted from the measurement at t=1 hour. Inhibitory activity of the compounds is expressed as IC50.

Row | Compound | IC50 [1] [nM] | IC50 [2] [nM]
1 | COCCCc1cc(CN(C(=O)[C@H]2CNCC[C@@]23OCc2cc(F)c(F)cc23)C2CC2)c2ncccc2c1 (relative stereo) [Example 54, (cis-1,3′)-N-Cyclopropyl-5,6-difluoro-N-{[6-(3-methoxypropyl)-8-quinolinyl]methyl}-3H-spiro[2-benzofuran-1,4′-piperidine]-3′-carboxamide] | 0.1 | 3.5
2 | COCCCc1cc(CCCOC)c(Cl)c(CN(C(=O)[C@H]2CNCC[C@@]23OCc2cc(F)c(F)cc23)C2CC2)c1 (relative stereo) [Example 53] | 0.1 | 1.3
3 | COCCc1cc(C)c(C)c(CN(C(=O)[C@H]2CNCC[C@@]23OCc2cc(F)c(F)cc23)C2CC2)c1 (relative stereo) [Example 45, (cis-1,3′)-N-Cyclopropyl-5,6-difluoro-N-[5-(2-methoxyethyl)-2,3-dimethylbenzyl]-3H-spiro[2-benzofuran-1,4′-piperidine]-3′-carboxamide] | 0.1 | 0.6
4 | O=C([C@H]1CNCC[C@@]12OCc1cc(F)c(F)cc12)N(Cc1c[nH]c2cccc(F)c12)C1CC1 (relative stereo) [Example 56, (cis-1,3′)-N-cyclopropyl-5,6-difluoro-N-[(4-fluoro-1H-indol-3-yl)methyl]-3H-spiro[2-benzofuran-1,4′-piperidine]-3′-carboxamide] | 1.2 | 4.5
5 | COCCCc1cc(CN(C(=O)[C@H]2CNCC[C@@]23OCc2cc(F)c(F)cc23)C2CC2)c2ccccc2n1 (relative stereo) [Example 48, (cis-1,3′)-N-Cyclopropyl-5,6-difluoro-N-{[2-(3-methoxypropyl)-4-quinolinyl]methyl}-3H-spiro[2-benzofuran-1,4′-piperidine]-3′-carboxamide] | 0.7 | 2.3
